“Also recorded” adds a separate entry of the source. Read-outs that look alike come from different tables or passages of the source.
Tests used:
[1] = 100 mg i.m., cited from earlier work
[2] = in vivo; cited from earlier work
[3] = 100 mg i.m., approx. 3 hours before operation; cited from earlier work
[4] = tested on: rat; conditions: cited from earlier work
[5] = tested on: inflammatory exudate (IE); assay: foreign body (sponge) method in the rat: inflammatory exudate volume; type: in vivo; conditions: rat, oral, 10 mg/kg, 8 hours
Protocol: (§1) These tests involved the use of 100 male CD strain rats (Charles River, Calco, LC, Italy) weighing 180±8 g. The animals were fasted for 12 hours (water ad libitum) before being used for the experiment.
(§2) The inflammatory reaction with the formation of exudate was induced by using sterilized polyester sponges (4×1.5×0.5 cm) soaked in carrageen dissolved at a 2% concentration in sterile physiological solution. The rats were anesthetized lightly with ether and two sponges per rat were implanted subcutaneously in a previously shaven dorsal area.
(§3) The sponges were removed 8 hours later after having sacrificed the animals by ether euthanasia, and immediately placed in large polyethylene 50 ml test tubes containing 10 ml of heparinized physiological solution. The test tubes were then subjected to centrifugation (1000 rotations; 15 minutes), followed by removal of the sponges and accurate measurement of the volume of the remaining fluid. Always using the Higgs et al. method, the acid lipids present in the fluid were extracted in chloroform with prior dilution in ethanol and acidification to pH 3. After complete evaporation of the chloroform, the remaining dry residue was dissolved in physiological solution and used for the immunoenzymatic assay of prostaglandin E2 (PGE2).
(§4) All the other reagents used for the tests were purchased from Merck-Bracco (Milan, Italy).

[6] = cited from earlier work
[7] = tested on: prostaglandin E2 (PGE2); assay: foreign body (sponge) method in the rat: PGE2 in the inflammatory exudate (immunoenzymatic assay); type: in vivo; conditions: rat, oral, 10 mg/kg, 8 hours
Protocol: as §1, §2, §3, §4

[8] = synovial fluid, 50 mg oral; cited from earlier work
[9] = Ketoprofen gel, cited from earlier work
[10] = high quantities, intact and abraded skin, also long term; cited from earlier work
[11] = tested on: carrageen edema; assay: carrageen edema test in the rat (hind paw volume, plethysmometer); conditions: rat, oral
[12] = once a day for three days, 12 hours

CC(C(=O)O)c1cccc(C(=O)c2ccccc2)c1 (stereo not drawn) [Ketoprofen, 3-Benzoyl-α-methylbenzeneacetic acid]
penetration into the joints ([1]; 15 minutes): penetrates promptly into the joints
serum and synovial concentration at equilibrium ([1]; 3.5 hours): 1.3 µg/mL
mean resident time in the joints vs serum [1]: about three times longer than that observed in serum
time of equilibrium of serum and synovial concentrations [1]: 3.5 h
AUC of the free Ketoprofen fraction in serum ([1]; serum): 127 ng·h/mL
time of maximum serum concentration ([1]; serum): 30 min
AUC of the free Ketoprofen fraction in synovial fluid ([1]; synovial fluid): 119 ng·h/mL
elimination with the feces [2]: 1%
mean value in blood [3]: 1.39 µg/g
mean value in bone [3]: 0.25 µg/g
mean value in fat [3]: 0.28 µg/g
mean value in muscle [3]: 0.26 µg/g
mean value in synovial fluid [3]: 0.85 µg/g
mean value in synovial membrane [3]: 0.32 µg/g
oral LD50 [4]: 165 mg/kg
% inhibition versus controls of IE [5]: 58.6%
IE (inflammatory exudate) volume ([5]; mean ± MSE, controls 5.15 ± 0.28): 2.13 ± 0.15 mL
time to peak concentration ([6]; intramuscular): ≤ 30 min
intraarticular concentrations vs serum and plasma, conclusion ([6]; various routes of administration): reach peak levels later with respect to those observable in serum and plasma, but remain at higher levels than the latter for a longer period after treatment and always with higher values compared to those present in circulatory flow
% inhibition versus controls of PGE2 [7]: 49.7%
PGE2 concentration in the inflammatory exudate ([7]; mean, controls 98.7 ± 4.7): 49.6 ng/mL
time of synovial peak [8]: approximately two hours after the plasma peak
concentration when first detectable ([9]; 2nd hour, matrix not stated): 6.3 ng/mL
concentration in capsular tissue [9, 12]: 2.36 µg/g
concentration in intraarticular adipose tissue [9, 12]: 4.70 µg/g
concentration in synovial fluid [9, 12]: 1.31 µg/g
concentration in the joint vs systemic circulation [9]: greater active substance concentration in the joint than in systemic circulation
duration of constant values [9]: 12 h
time to peak concentration [9]: after six hours
tolerability / toxicity following dermal application [10]: excellent tolerability and lack of acute and chronic toxicity; also recorded: did not induce any local or general harm
anti-inflammatory / anti-edematogenic effect [11]: also resulted as having anti-inflammatory activity
evolution of paw volume (delta in ml) at 1st hour ([11]; 10 mg/kg, 1st hour, mean ± MSE): 0.19 ± 0.02 mL
evolution of paw volume (delta in ml) at 2nd hour ([11]; 10 mg/kg, 2nd hour, mean ± MSE): 0.33 ± 0.03 mL
evolution of paw volume (delta in ml) at 3rd hour ([11]; 10 mg/kg, 3rd hour, mean ± MSE): 0.41 ± 0.02 mL
evolution of paw volume (delta in ml) at 4th hour ([11]; 10 mg/kg, 4th hour, mean ± MSE): 0.42 ± 0.02 mL
evolution of paw volume (delta in ml) at 5th hour ([11]; 10 mg/kg, 5th hour, mean ± MSE): 0.40 ± 0.03 mL
evolution of paw volume (delta in ml) at 6th hour ([11]; 10 mg/kg, 6th hour, mean ± MSE): 0.37 ± 0.03 mL
% inhibition vs controls (paw edema AUC) ([11]; 10 mg/kg, p < 0.001): 54.1%
AUC (mean ± MSE) of increase in paw volume ([11]; 10 mg/kg, paw volume (delta in ml) vs time (0 to 6 hours), controls 4.23 ± 0.26): 1.94 ± 0.10

— patent US6291527A (priority 1998, dated 2001)
